# Laboratory results: US20150125457A1, “BONE REPAIR PROMOTER” (DAIICHI SANKYO COMPANY, LIMITED, priority 2012, published 2015)
# Bridges are numbered along the chain shown (N, C = ends). Where no end group is shown, it is not given here.
# What was measured:
# [1] = test system: type X collagen gene; experiment: Rat closed femur fracture model, cartilage-related marker gene expression (real-time PCR); assay type: in vivo; conditions: Example 4: 0.5 mg/kg/day continuous s.c. for one week; 7 days after fracture; versus vehicle group; FIG. 5C
# Experimental: In accordance with the method of Example 2, a rat closed fracture model was prepared. For an animal in a Sham group, a pin only was inserted into the femur, and a bone fracture was not prepared. An administration solution of CNP derivative A was prepared so as to be a dosage corresponding to 0.5 mg/kg/day, and then loaded into an osmotic pump (model 2001, Alzet). The osmotic pump was buried under the skin of the neck back of the animal, and continuous subcutaneous administration was performed for one week. Vehicle was continuously subcutaneously administered to the control group. 7 days after the preparation of the bone fracture, the animal was subjected to isoflurane inhalation anesthesia, retained in a supine position to open the abdomen, and then bled for the euthanasia. The left femur was resected, and immersed into RNAlater (Life Technologies Corporation). The diaphysis or part of the callus was cut out from the femur that had been refrigerated in RNAlater for one day or more. To the cut-out diaphysis or part of the callus, QIAzol (QIAGEN) was added, and the resultant was crushed with tungsten beads. The total RNA was extracted by an RNeasy Mini Kit (QIAGEN), and 1st strand cDNA was synthesized by a SuperScript VILO cDNA Synthesis Kit (Life Technologies Corporation). The gene expression level was measured by a real-time PCR method using TaqMan Gene Expression Master Mix (Life Technologies Corporation). The measured value was standardized by the gene expression level of ubiquitin-C. The standardization was performed for 12 cases in each group.
# (§1) In accordance with the method of Example 2, a rat closed fracture model was prepared. An administration solution was prepared so as to be a dosage corresponding to 0.5 mg/kg/day by using various NPR-B agonists (CNP derivative A, hCNP-53 (SEQ ID NO: 2), CNP derivative C (CNP-36, amino acid Nos. 18 to 53 of SEQ ID NO: 2), and CNP derivative D (Pro-Gly-CNP37, SEQ ID NO: 15)), and then loaded into an osmotic pump (Model 2001, Alzet). The osmotic pump was buried under the skin of the neck back of the animal retained in a supine position, and continuous subcutaneous administration was performed for one week. Vehicle was administered to the control group. 7 days after the preparation of the bone fracture, the animal was subjected to isoflurane inhalation anesthesia, retained in a supine position to open the abdomen, and then subjected to blood collection from the abdominal aorta. EDTA Na was added to the blood, then the EDTA Na-added blood was centrifuged and the plasma separated, and the resultant was cryopreserved. At a later date, the cGMP level in the plasma was measured by a RIA method using a kit (YSI-7702, YAMASA CORPORATION). After blood collection, the animal was bled for the euthanasia, and then the left femur was resected. Each maximum diameter of the sagittal plane and the coronal plane in the callus was measured, and the average value was used as a callus diameter. In accordance with the method of Example 3, the type X collagen gene expression level in the callus was measured. The measurement was performed for 12 cases in each group.
# [2] = test system: rat closed femur fracture model; experiment: Rat closed femur fracture model, callus diameter; assay type: in vivo; conditions: 0.5 mg/kg/day continuous s.c. for one week; 7 days after fracture; versus vehicle group; FIG. 5B
# Experimental: as §1
# [3] = biological target: T1, NPR-B (Homo sapiens, UniProt P20594); conditions: literature reports (Furuya et al. 1992; US 2010-305031); cited from earlier work
# T1 sequence (P20594 23-1047): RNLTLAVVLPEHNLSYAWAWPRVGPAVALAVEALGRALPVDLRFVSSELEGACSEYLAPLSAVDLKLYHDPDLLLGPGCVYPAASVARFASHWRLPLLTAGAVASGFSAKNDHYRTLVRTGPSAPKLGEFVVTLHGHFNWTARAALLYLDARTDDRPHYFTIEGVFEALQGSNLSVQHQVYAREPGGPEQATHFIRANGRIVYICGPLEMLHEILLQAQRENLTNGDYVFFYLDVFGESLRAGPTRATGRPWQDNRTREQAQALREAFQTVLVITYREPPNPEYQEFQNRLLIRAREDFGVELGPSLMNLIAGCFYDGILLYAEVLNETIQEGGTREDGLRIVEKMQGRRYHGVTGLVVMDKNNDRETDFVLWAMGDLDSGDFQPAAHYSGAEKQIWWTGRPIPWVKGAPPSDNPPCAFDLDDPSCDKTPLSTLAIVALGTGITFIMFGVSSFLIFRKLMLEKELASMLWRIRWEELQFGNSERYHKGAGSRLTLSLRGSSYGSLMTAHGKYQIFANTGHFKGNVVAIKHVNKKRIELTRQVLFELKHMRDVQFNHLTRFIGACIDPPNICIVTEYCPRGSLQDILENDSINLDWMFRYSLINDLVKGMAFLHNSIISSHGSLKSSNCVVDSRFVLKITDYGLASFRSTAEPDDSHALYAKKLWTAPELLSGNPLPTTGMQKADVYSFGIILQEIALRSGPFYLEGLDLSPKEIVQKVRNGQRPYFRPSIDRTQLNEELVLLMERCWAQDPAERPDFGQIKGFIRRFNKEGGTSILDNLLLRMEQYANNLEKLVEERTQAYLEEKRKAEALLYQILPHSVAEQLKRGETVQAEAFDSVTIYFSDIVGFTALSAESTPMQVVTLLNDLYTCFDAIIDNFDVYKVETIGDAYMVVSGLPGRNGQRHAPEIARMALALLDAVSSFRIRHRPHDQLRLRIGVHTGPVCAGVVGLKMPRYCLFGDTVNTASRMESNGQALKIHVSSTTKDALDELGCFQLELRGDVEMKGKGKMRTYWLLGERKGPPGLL
Substance,Gene expression level of type X collagen in the callus [1],Maximum diameter of the callus generated in the left femur [2],NPR-B agonist activity compared with hCNP-22 (in words) [3]
"CNP derivative D: Pro-Gly-CNP37, SEQ ID NO: 15; derivative described in WO 2009/067639 (PGQEHPNARKYKGANKKGLSKGCFGLKLDRIGSMSGLGC; CNP derivative D, which disclosed in Am. J. Hum. Gent.(2012), 91(6), 1108-1114)",significantly suppressed,significantly larger,
"CNP derivative C: hCNP-36, 17 consecutive amino acids from the N terminus of hCNP-53 deleted; amino acid Nos. 18 to 53 of SEQ ID NO: 2 (EHPNARKYKGANKKGLSKGCFGLKLDRIGSMSGLGC; mammalian)",significantly suppressed,significantly larger,
"CNP6-22: peptide consisting of only the ring structure, amino acid Nos. 6 to 22 of SEQ ID NO: 1 (CFGLKLDRIGSMSGLGC; disulfide 1-17 (inferred))",,,almost the same NPR-B agonist activity as that of hCNP-22
"hCNP-53: human-derived CNP-53, DLRVDTKSRAAWARLLQEHPNARKYKGANKKGLSKGCFGLKLDRIGSMSGLGC: SEQ ID NO: 2 (DLRVDTKSRAAWARLLQEHPNARKYKGANKKGLSKGCFGLKLDRIGSMSGLGC; mammalian) [reference compound]",suppressed,significantly larger,
